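These data come from cells grown in 96-well plates and exposed to compound for 48 hours at five concentrations. Abbreviation: GI50, concentration required for 50% inhibition of growth. Definition used: TGI = concentration required for complete inhibition of growth.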
Tests used:
Assay in all cases: NCI tumour cell line growth inhibition, 48 h
OVCAR-4 ovarian = test system: OVCAR-4 ovarian
K-562 leukemia = test system: K-562 leukemia
PC-3 prostate = test system: PC-3 prostate
SF-539 CNS = test system: SF-539 CNS
A549 NSCLC = test system: A549 NSCLC
NCI/ADR-RES ovarian = test system: NCI/ADR-RES ovarian
KM12 colon = test system: KM12 colon
OVCAR-8 ovarian = test system: OVCAR-8 ovarian
SR leukemia = test system: SR leukemia
MDA-MB-231 breast = test system: MDA-MB-231 breast
SK-MEL-28 melanoma = test system: SK-MEL-28 melanoma
786-0 renal = test system: 786-0 renal
HCC-2998 colon = test system: HCC-2998 colon
A498 renal = test system: A498 renal
NCI-H522 lung = test system: NCI-H522 lung
NCI-H226 lung = test system: NCI-H226 lung
UO-31 renal = test system: UO-31 renal
COLO 205 colon = test system: COLO 205 colon
SW-620 colon = test system: SW-620 colon
HOP-92 NSCLC = test system: HOP-92 NSCLC
NCI-H23 lung = test system: NCI-H23 lung
MCF7 breast = test system: MCF7 breast
T-47D breast = test system: T-47D breast
HL-60(TB) leukemia = test system: HL-60(TB) leukemia
RPMI-8226 leukemia = test system: RPMI-8226 leukemia
OVCAR-5 ovarian = test system: OVCAR-5 ovarian
HCT-116 colon = test system: HCT-116 colon
UACC-62 melanoma = test system: UACC-62 melanoma
MOLT-4 leukemia = test system: MOLT-4 leukemia

With `C[C@]12CC[C@@H]3c4cc(OC(F)F)c(OS(N)(=O)=O)cc4CC[C@H]3[C@@H]1CC[C@@H]2OS(N)(=O)=O` the GI50 (OVCAR-4 ovarian) was 5.33 µM, the TGI (OVCAR-4 ovarian) was 29.5 µM and the GI50 (K-562 leukemia) was 0.389 µM. It also gave a TGI (K-562 leukemia) of over 100 µM, a GI50 (PC-3 prostate) of 1.41 µM and a TGI (PC-3 prostate) of 30.6 µM. It also gave a GI50 (SF-539 CNS) of 0.781 µM, a TGI (SF-539 CNS) of 3.84 µM and a GI50 (A549 NSCLC) of 2.52 µM. The TGI (A549 NSCLC) was 34.4 µM, the GI50 (NCI/ADR-RES ovarian) was 0.696 µM and the TGI (NCI/ADR-RES ovarian) was 28.9 µM. The GI50 (KM12 colon) was 1.62 µM, the TGI (KM12 colon) was 20 µM and the GI50 (OVCAR-8 ovarian) was 1.74 µM. The TGI (OVCAR-8 ovarian) was over 59 µM, the GI50 (SR leukemia) was 0.441 µM and the TGI (SR leukemia) was over 100 µM. The GI50 (MDA-MB-231 breast) was 3.05 µM, the TGI (MDA-MB-231 breast) was 28.2 µM and the GI50 (SK-MEL-28 melanoma) was 2.94 µM. The TGI (SK-MEL-28 melanoma) was 20.3 µM, the GI50 (786-0 renal) was 1.8 µM and the TGI (786-0 renal) was 16.5 µM. It also gave a GI50 (HCC-2998 colon) of 3.88 µM, a TGI (HCC-2998 colon) of 17.3 µM and a GI50 (A498 renal) of 0.934 µM. It also gave a TGI (A498 renal) of 4.02 µM, a GI50 (NCI-H522 lung) of 0.689 µM and a TGI (NCI-H522 lung) of 12.7 µM. It also gave a GI50 (NCI-H226 lung) of 4.24 µM, a TGI (NCI-H226 lung) of 33.2 µM and a GI50 (UO-31 renal) of 1.42 µM. For the same compound, the TGI (UO-31 renal) was 19.4 µM, the GI50 (COLO 205 colon) was 2.97 µM and the TGI (COLO 205 colon) was 21.4 µM. For the same compound, the GI50 (SW-620 colon) was 0.439 µM, the TGI (SW-620 colon) was 20.7 µM and the GI50 (HOP-92 NSCLC) was 1.15 µM. For the same compound, the TGI (HOP-92 NSCLC) was 10.6 µM, the GI50 (NCI-H23 lung) was 2.44 µM and the TGI (NCI-H23 lung) was 21.6 µM. For the same compound, the GI50 (MCF7 breast) was 1.09 µM, the TGI (MCF7 breast) was 19.2 µM and the GI50 (T-47D breast) was 1.56 µM. The TGI (T-47D breast) was 31.7 µM, the GI50 (HL-60(TB) leukemia) was 0.829 µM and the TGI (HL-60(TB) leukemia) was 27.6 µM. It also gave a GI50 (RPMI-8226 leukemia) of 1.03 µM, a TGI (RPMI-8226 leukemia) of 35.4 µM and a GI50 (OVCAR-5 ovarian) of 4.73 µM. The TGI (OVCAR-5 ovarian) was 26.5 µM, the GI50 (HCT-116 colon) was 0.997 µM and the TGI (HCT-116 colon) was 13.9 µM. For the same compound, the GI50 (UACC-62 melanoma) was 1.38 µM, the TGI (UACC-62 melanoma) was 16.8 µM and the GI50 (MOLT-4 leukemia) was 1.06 µM.

From PubChem BioAssay (NCI)
